The subject of one data set is HEp2 or BSC1 cells. Put plainly: Toxicity to cells in the TCID50 screen (mock control). The data set is classed as cell-based. The protocol: This method provides a rapid approach to initially screen compounds and was developed as an increased number of compounds were synthesised. […] Virus was then added over 5 different half log dilutions starting at a multiplicity of infection of 0.02 plus mock control. Three dilutions of compound plus a DMSO control were screened per plate. […] Identical plate repeats for each compound dilution were fixed in subsequent days as indicated.

The nature of data set [1]: Solubility in cell medium. The data set is classed as physicochemical. The note with it: solution of ligand in DMSO (20 mM) diluted in cell media to 100 μM; scale from 'very poor' (almost insoluble) to 'very good' (freely soluble over extended periods at 4° C.).
In the next data set the test system is RSV. Put plainly: 96 well plate TCID50 (cellular RSV TCID50 assay). The data set is classed as cell-based. To be noted: summary of activities in cellular RSV TCID50 assay; symbols − to +++++ not defined. The procedure: This method provides a rapid approach to initially screen compounds and was developed as an increased number of compounds were synthesised. Cells of a standard cell line known to support pneumovirus replication (typically HEp2 or BSC1 cells) were grown to 95% confluence in a 96 well plate. Virus was then added over 5 different half log dilutions starting at a multiplicity of infection of 0.02 plus mock control. Three dilutions of compound plus a DMSO control were screened per plate. […] Identical plate repeats for each compound dilution were fixed in subsequent days as indicated.
Stained plates were read at 595 nm, higher optical density (OD) readings indicate more viable cells remain.

The test system of another data set is hRSV (strain A2). Put plainly: Plaque inhibition assay, hRSV. The class given is cell-based, human respiratory syncytial virus. The protocol: Example: Plaque inhibition assay
An identical assay procedure was carried out for hRSV (strain A2) bovine RS (strain Snook) and PVM (strain 15). Virus stocks were diluted 10 fold in GMEM (Invitrogen) so that the wells containing cells received sufficient virus to generate approximately 2000, 200 and 20 plaques per well.
The overlay medium also contained the compound to be tested at appropriate concentrations. Typically the 6 concentrations of the test compounds used were: 100 μM, 31.6 μM, 10 μM, 3.16 μM, 1 μM and 0.316 μM.
Stocks of the test compounds were prepared in DMSO (Sigma) (carrier). Each stock compound was diluted 1 in 200 in overlay medium to give dilutions stated above.
Cells of a standard cell line known to support pneumovirus replication (typically HEp2 or BSC1 cells) were grown in standard 12 well plates at 37° C. in an atmosphere of 5% (v/v) CO2 until confluent. Medium was aspirated from the cells and replaced with 200 μl aliquots of virus. Aliquots were prepared by diluting virus stocks 10-fold in GMEM (Invitrogen) as described above with no FCS. A mock (no virus) was also set up to test cell viability. The virus was incubated with the cells for 1 hour at 33° C. with gentle rocking every 5-10 minutes. The inocula were removed and 2 ml of overlay medium was added. Overlay medium was either test (plus compound) or control (medium alone or medium containing DMSO). The plates were incubated at 33° C. for 4-8 days to allow plaques to develop as indicated. A volume of 1 ml of additional overlay medium (containing the test compound as appropriate) was added every 3 days. All virus dilutions were carried out with each concentration of test compound, or treated as controls, and each was carried out in triplicate.
Following incubation, cells were fixed by addition of an equal volume of 4% (v/v) glutaraldehyde (Sigma) in PBS with further incubation for a minimum of 2 hours. The fixing solution was washed off under a slow flowing stream of water and 1 ml of crystal violet (0.075% w/v: Sigma) was added and left for 20 minutes at room temperature. The crystal violet was removed and the fixed cell monolayers washed. Plates were air dried. Plaques counts were recorded from wells with >20 and <200 in number. These numbers provide the most robust statistical reliability for viable plaque counts.
This experimental approach screens the ability of compounds to block the formation of plaques.

Where [2] appears, read: cellular RSV TCID50 assay tables.

Read-outs that look alike come from different tables or passages of the source.

`Cc1ccccc1NC(=O)NCCN(C)C` [Compound 26, 3-[2-(dimethylamino)ethyl]1-(2-methylphenyl)urea]: the Toxicity result in the data set on HEp2 or BSC1 cells (setting [2]) was “low”. In addition, the “Solubility in cell medium” value in data set [1] is “good”.

Take `Cc1ccccc1NC(=S)Nc1cccc(C#N)c1` [Compound 18, 1-(3-cyanophenyl)-3-(2-methylphenyl)thiourea]: in the data set on HEp2 or BSC1 cells (setting [2]), the Toxicity result is given as “low”. The “Solubility in cell medium” value in data set [1] was “very good”.

As to `N#Cc1cccc(NC(=O)Nc2ccccn2)c1` [Compound 11, 3-(3-cyanophenyl)-1-(pyridin-2-yl)urea], the Toxicity entry with HEp2 or BSC1 cells (setting [2]) is reported as “toxic at 100 μM”. In addition, the “Solubility in cell medium” value in data set [1] was “moderate”.

Take `COc1ccc(NC(=O)Nc2ccccc2C)cc1OC` [Compound 45, 1-(3,4-dimethoxyphenyl)-3-(o-tolyl)urea]: in the data set on HEp2 or BSC1 cells (setting [2]), the Toxicity entry is on record as “Low”. Moreover, the outcome with RSV was Inactive. For the same compound, the “Solubility in cell medium” value in data set [1] is recorded as “Good”.

Turning to `CCCCCCCCNC(=O)Nc1ccccc1C` [Compound 25, 1-(2-methylphenyl)-3-octylurea], the Toxicity result in the data set with HEp2 or BSC1 cells (setting [2]) is “low”. In addition, the “Solubility in cell medium” value in data set [1] was “moderate”.

With `Cc1ccccc1NC(=O)Nc1cccc([S+](C)[O-])c1` (stereo not drawn) [Compound 5, 3-(3-methanesulfinylphenyl)-1-(2-methylphenyl)urea], the Toxicity entry with HEp2 or BSC1 cells (setting [2]) is on record as “very low”. Also, the “Solubility in cell medium” value in data set [1] is “good”.

The IC50 is the concentration that inhibits the measured activity by half. Turning to `Cc1ccccc1NC(=O)Nc1cccc(C#N)c1` [Compound 3, 3-(3-cyanophenyl)-1-(2-methylphenyl)urea], the “Plaque size relative to DMSO control” value in the data set on hRSV (strain A2) (hRSV plaque assay) is recorded as “much smaller”. The Plaque size result with hRSV (strain A2) (hRSV, HEp2 cells, 5 days, at 31.6 μM and to some extent 10 μM) was “very small”. Besides, the IC50 in the data set on hRSV (strain A2) (human respiratory syncytial virus, HEp-2, 120 h, hRSV, HEp2 cells, Day 5, read-out: IC50 (plaque number vs DMSO control)) was roughly 50 µM. Besides, the Toxicity result in the data set with HEp2 or BSC1 cells (setting [2]) is on record as “low”. In addition, the “Solubility in cell medium” value in data set [1] was “good”.

Consider `Cc1ccccc1NC(=O)Nc1cccc(Br)c1` [Compound 16, 1-(3-bromophenyl)-3-(2-methylphenyl)urea], for which the Toxicity entry in the data set on HEp2 or BSC1 cells (setting [2]) is listed as “toxic at 100 μM”. Also, the “Solubility in cell medium” value in data set [1] is recorded as “moderate”.

Turning to `CC1CCCCC1NC(=O)Nc1cccc([N+](=O)[O-])c1` (stereo not drawn) [Compound 21, 3-(2-methylcyclohexyl)-1-(3-nitrophenyl)urea], the Toxicity entry in the data set with HEp2 or BSC1 cells (setting [2]) is listed as “toxic at 100 μM”. Further, in data set [1], the “Solubility in cell medium” value is given as “moderate”.

Take `CSc1ccc(NC(=O)Nc2ccccc2C)cc1` [Compound 14, 3-(2-methylphenyl)-1-[4-(methylsulfanyl)phenyl]urea]: in the data set with HEp2 or BSC1 cells (setting [2]), the Toxicity entry is recorded as “low”. Besides, the “Solubility in cell medium” value in data set [1] was “good”.

Take `CC(=O)c1cccc(NC(=O)Nc2ccccc2C)c1` [Compound 2, 1-(3-acetylphenyl)-3-(2-methylphenyl)urea]: the Toxicity result in the data set with HEp2 or BSC1 cells (setting [2]) is recorded as “very low”. In addition, the “Solubility in cell medium” value in data set [1] is on record as “good”.

Regarding `CC1CCCCC1NC(=O)Nc1cccc(C#N)c1` (stereo not drawn) [Compound 23, 1-(3-cyanophenyl)-3-(2-methylcyclohexyl)urea], the Toxicity result in the data set on HEp2 or BSC1 cells (setting [2]) is given as “low”. For the same compound, the “Solubility in cell medium” value in data set [1] was “moderate”.

Regarding `Cc1ccccc1NC(=O)NCCCOCCOCCOCCCNC(=O)Nc1ccccc1C` [Compound 38, 1-(2-methylphenyl)-3-(3-{2-[2-(3-{[(2-methylphenyl)carbamoyl]-amino}propoxy)ethoxy]ethoxy}propyl)urea], the Toxicity entry with HEp2 or BSC1 cells (setting [2]) was “toxic at 50 μM”. In addition, the “Solubility in cell medium” value in data set [1] was “good”.

`N#Cc1cccc(NC(=O)Nc2cccnc2)c1` [Compound 7, 3-(3-cyanophenyl)-1-(pyridin-3-yl)urea]: the Toxicity result in the data set on HEp2 or BSC1 cells (setting [2]) is on record as “low”. Also, the “Solubility in cell medium” value in data set [1] was “moderate”.

On to `COc1cccc(NC(=O)Nc2cccc(NC(=O)Nc3cccc(OC)c3)c2)c1` [Compound 34, 1,1′-(1,3-phenylene)bis(3-(3-methoxyphenyl)urea)], for which the Toxicity entry in the data set with HEp2 or BSC1 cells (setting [2]) is listed as “toxic at 100 μM”. Moreover, the “Solubility in cell medium” value in data set [1] is reported as “poor”.

Take `Cc1ccccc1NC(=S)Nc1cccc([N+](=O)[O-])c1` [Compound 17, 3-(2-methylphenyl)-1-(3-nitrophenyl)thiourea]: the Toxicity entry in the data set on HEp2 or BSC1 cells (setting [2]) is “toxic at 100 μM”. The “Solubility in cell medium” value in data set [1] is listed as “good”.

Regarding `CCCCCCCCNC(=O)Nc1ccc(C#N)cc1` [Compound 24, 1-(4-cyanophenyl)-3-octylurea], the Toxicity entry in the data set on HEp2 or BSC1 cells (setting [2]) is listed as “low”. Also, the “Solubility in cell medium” value in data set [1] was “good”.

Regarding `CSc1cccc(NC(=O)Nc2cccc(NC(=O)Nc3cccc(SC)c3)c2)c1` [Compound 33, 1,1′-(1,3-phenylene)bis(3-(3-(methylthio)phenyl)urea)], the Toxicity entry in the data set on HEp2 or BSC1 cells (setting [2]) is “toxic at 100 μM”. For the same compound, the “Solubility in cell medium” value in data set [1] is recorded as “poor”.

`Cc1ccccc1NC(=S)NCCN(C)C` [Compound 29, 3-[2-(dimethylamino)ethyl]-1-(2-methylphenyl)thiourea]: the Toxicity entry in the data set with HEp2 or BSC1 cells (setting [2]) is given as “low”. The “Solubility in cell medium” value in data set [1] is recorded as “good”.

Consider `COc1ccc(NC(=O)Nc2ccccc2C)cc1` [Compound 15, 1-(4-methoxyphenyl)-3-(2-methylphenyl)urea], for which the Toxicity entry with HEp2 or BSC1 cells (setting [2]) is listed as “low”. Moreover, the “Solubility in cell medium” value in data set [1] was “good”.

For the compound `CCCCCCCCNC(=S)Nc1ccccc1C` [Compound 28, 1-(2-methylphenyl)-3-octylthiourea], in the data set with HEp2 or BSC1 cells (setting [2]), the Toxicity entry is reported as “low”. Further, the “Solubility in cell medium” value in data set [1] is listed as “good”.

For the compound `Cc1ccccc1NC(=O)Nc1ccccn1` [Compound 9, 1-(2-methylphenyl)-3-(pyridin-2-yl)urea], the Toxicity result in the data set with HEp2 or BSC1 cells (setting [2]) is “low”. Besides, the “Solubility in cell medium” value in data set [1] is given as “good”.

In the case of `Cc1ccccc1NC(=O)Nc1cccnc1` [Compound 10, 1-(2-methylphenyl)-3-(pyridin-3-yl)urea], the Toxicity entry in the data set on HEp2 or BSC1 cells (setting [2]) was “low”. Also, the “Solubility in cell medium” value in data set [1] is “moderate”.

For the compound `Cc1ccccc1NC(=S)N1CCOCC1` [Compound 30, N-(2-methylphenyl)morpholine-4-carbothioamide], the Toxicity result in the data set on HEp2 or BSC1 cells (setting [2]) was “low”. Besides, the “Solubility in cell medium” value in data set [1] is “very good”.

As to `N#Cc1cccc(NC(=O)Nc2ncccn2)c1` [Compound 12, 3-(3-cyanophenyl)-1-(pyrimidin-2-yl)urea], the Toxicity entry in the data set on HEp2 or BSC1 cells (setting [2]) is “toxic at 100 μM”. The “Solubility in cell medium” value in data set [1] was “poor”.

With `COc1cccc(NC(=O)Nc2ccccc2C)c1` [Compound 13, 3-(3-methoxyphenyl)-1-(2-methylphenyl)urea], in the data set with HEp2 or BSC1 cells (setting [2]), the Toxicity result was “toxic at 100 μM”. Besides, the “Solubility in cell medium” value in data set [1] is “good”.

For `N#Cc1ccc(NC(=O)Nc2ccccn2)cc1` [Compound 8, 3-(4-cyanophenyl)-1-(pyridin-2-yl)urea], in the data set with HEp2 or BSC1 cells (setting [2]), the Toxicity result is on record as “toxic at 100, 32, 10 μM”. Also, the “Solubility in cell medium” value in data set [1] is listed as “moderate”.

Regarding `O=C(Nc1cccc(NC(=O)Nc2cccc([N+](=O)[O-])c2)c1)Nc1cccc([N+](=O)[O-])c1` [Compound 31, 1,1′-(1,3-phenylene)bis(3-(3-nitrophenyl)urea)], the Toxicity result in the data set on HEp2 or BSC1 cells was “toxic at 100 μM”. Further, the “Solubility in cell medium” value in data set [1] is “very poor”.

In the case of `Cc1ccccc1NC(=O)N1CCOCC1` [Compound 27, N-(2-methylphenyl)morpholine-4-carboxamide], the Toxicity entry with HEp2 or BSC1 cells (setting [2]) is “low”. In addition, the “Solubility in cell medium” value in data set [1] is “good”.

On to `Cc1ccccc1NC(=O)Nc1ccc(Br)cc1` [Compound 41, 1-(4-bromophenyl)-3-(o-tolyl)urea], for which, in the data set on HEp2 or BSC1 cells (setting [2]), the Toxicity entry was “Low”. The “Solubility in cell medium” value in data set [1] was “Moderate at 100 μM”.

As for `CC1CCCCC1NC(=O)Nc1ccc(C#N)cc1` (stereo not drawn) [Compound 22, 1-(4-cyanophenyl)-3-(2-methylcyclohexyl)urea], the Toxicity result in the data set on HEp2 or BSC1 cells (setting [2]) was “low”. In data set [1], the “Solubility in cell medium” value was “moderate”.

Source of the values: patent publication US9884812B2, “Use of DDX3X inhibitors for the treatment of pneumovirus infections” (priority 2014, dated 2018).
